In brackets after ≈: the same amount, converted by molar mass.
What was measured:
adenosine deaminase = adenosine deaminase (Homo sapiens, UniProt P00813); settings: Tetrahedron Letters, 21, 1980, 327-330; cited from earlier work
[1] = tested on: herpes simplex virus type 1; assay: Comparative in vivo activity against herpetic encephalitis in mice (Example 18); design: species or system CD.1 mice; settings: for Mean reciprocal survival time: 100 mg/kg/dose twice daily for 4½ days, 300 LD50
Protocol: CD.1 mice weighing 16 - 20 gm were obtained from Charles River, Manston, Kent, U.K. The animals were housed in groups of approximately 10 and were given food and water ad lib.
The compounds namely acyclovir, 134U, 759U and 457U, were prepared as suspensions or solutions in sterile water at a concentration of 20 mg/ml prior to each experiment, and were stored at 4°C during the dosing period.
The ICI strain of herpes simplex virus type 1 was used for all experiments at a concentration of 300 LD50 (10^5 pfu)/ml). Dilutions from virus stocks ([…]) were prepared in PBS 'A'.
The test procedure is analoguous to that described in Example 13.
Three experiments were performed, in which three routes of compound administration were examined: i) subcutaneous, ii) oral and iii) intraperitoneal. […]

Solubility in water = type: physicochemical
Description: As mentioned above, the compounds of formula (I) have the important advantage of having a greater solubility in water than acyclovir. Thus, the compounds of formula (I) wherein X is an oxygen atom and R is a hydroxy group or amino group have solubilities of 0.4 -.0.5% and 2 - 3% w/w respectively compared with a figure of 0.14% w/w for acyclovir.

[2] = tested on: EHV-1 Pneumabort vaccine strain; assay: Comparative in vivo activity against equine rhinopneumonitis virus in hamsters, medicated drinking water (Example 15); design: species or system Syrian hamsters; settings: for Cumulative mortality (out of 15) on day: water conc. 0.075 mg/ml, average intake 6.6-6.8 mg/kg/day
Protocol: 50 male WO/CR Syrian hamsters were caged randomly in 10 groups of 5, with water and food (seed mix) ad lib. Hamsters were weighed on Days -3, 0, 4, and/or- at death/sacrifice. Water consumption was recorded over Days -3 to 0 to 4.
EHV-1 Pneumabort vaccine strain stored as a 10^-1 dilution, was further diluted 10^-1 in PBS for infection. On Day 0, hamsters in Groups 1-9 received 0.2 ml virus inoculum s/c in the left flank equivalent to about 2 x 10^5 PFU (plaque-forming units).
457U and 759U were dissolved in drinking water at 0.075 mg/ml. Assuming an average daily intake of […], this would result in a daily dose of around 10 mg/kg. Medicated water was provided from approximately 5 hours pre-infection for 96 hours, as below
The drug intake was calculated from the weight of the animals and the water consumption recorded over the period of the experiment.

Chain of adenosine deaminase (P00813 whole entry): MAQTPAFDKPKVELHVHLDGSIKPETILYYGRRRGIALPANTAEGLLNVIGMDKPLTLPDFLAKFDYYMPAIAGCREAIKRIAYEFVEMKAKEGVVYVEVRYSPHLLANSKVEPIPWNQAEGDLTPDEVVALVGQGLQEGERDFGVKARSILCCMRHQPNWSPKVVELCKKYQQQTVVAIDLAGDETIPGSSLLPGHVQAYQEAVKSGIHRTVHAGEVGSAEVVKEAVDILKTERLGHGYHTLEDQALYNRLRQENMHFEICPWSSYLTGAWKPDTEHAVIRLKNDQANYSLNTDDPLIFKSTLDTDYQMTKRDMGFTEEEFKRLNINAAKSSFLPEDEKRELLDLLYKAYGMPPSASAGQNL

## Nc1ncnc2c1ncn2COC(CO)CO
Adenosine deaminase
  competitive inhibition of the enzyme: weak competitive inhibitor
  substrate for the enzyme: poor substrate

## Nc1nc(N)c2ncn(COCCO)c2n1 [Example 134U, 2-amino-9-(2-hydroxy-methoxymethyl) adenine, reference compound]
[1]; Oral
  Mean reciprocal survival time: 0.222
[1]; i.p.
  Mean reciprocal survival time: 0.231
[1]; s.c.
  Mean reciprocal survival time: 0.226

## Nc1nc(N)c2ncn(COC(CO)CO)c2n1 [Example 457U, 9-[(2-hydroxy-1-hydroxymethylethoxy)methyl]-2,6-diaminopurine]
Solubility in water
  solubility: 20 to 30 mg/mL (≈ 78.7 to 118 mM)
[2]; in 15 treated hamsters, 14 deaths in 15 untreated controls
  deaths from virus-induced hepatitis: 1
[2]; orally in drinking water, approximately 7 mg/kg/day
  prevention of EHV-1 induced mortality: almost completely prevented
[2]; day 2
  Cumulative mortality (out of 15) on day: 0
[2]; day 3
  Cumulative mortality (out of 15) on day: 1
[2]; day 4+
  Cumulative mortality (out of 15) on day: 1
[1]; Oral
  Mean reciprocal survival time: 0.155
[1]; any of the three routes, difference highly significant
  antiviral effect compared with acyclovir and 134U: greatest antiviral effect
[1]; i.p.
  Mean reciprocal survival time: 0.077
[1]; s.c.
  Mean reciprocal survival time: 0.102
